Drawing on a melting point compilation (Tetko et al.; mined from patent text by program, amines drawn as free bases though some values may be those of a salt), this text covers melting point for 88 compounds.

By melting point is commonly meant the temperature of the solid-liquid transition.

`N#Cc1cccc(C(=O)c2ccc(S)cc2)c1` registered a melting point of 126 °C.

`CS(=O)(=O)c1ccc(C2=C(c3ccc(Cl)cc3)CCC2)cc1`: the melting point turned out to be 128 °C.

For `CC1(C)C(=O)N(c2ccc(C#N)c(C(F)(F)F)c2)C(=O)N1CCCCCN1C(=O)N(c2ccc(C#N)c(C(F)(F)F)c2)C(=O)C1(C)C`, the melting point fell in the range of 167 to 169 °C.

In turn, `NC(=O)N(O)Cc1ccc(N2CCC(=O)CC2)cc1` gave a melting point of 138 to 140 °C.

Turning to `CN(C(=O)c1ccc(Nc2nccc(Nc3ccc(C(F)(F)F)cc3)n2)cc1)C1CCOCC1`, the melting point lay in the range of 254 to 256 °C.

For the compound `CCC1(C(=O)C=Cc2ccc(C(=O)O)cc2)CC1`, the melting point stood at 184 °C.

`CCCc1nn(C)c2c(=O)[nH]c(Cc3ccc(S(=O)(=O)N[C@@H](CO)C(N)=O)cc3)nc12` showed a melting point of 226 to 229 °C.

`CCN1CCC/C1=C\c1nc(-c2ccc(F)cc2)c(-c2ccncc2)n1CCCc1ccccc1` gave a melting point of 127 to 128 °C.

Take `N#Cc1ncn2c(C(F)(F)F)cc(-c3ccncc3)nc12`: the melting point is 254 °C.

For the compound `COC(=O)Nc1nc2ccc(OS(=O)(=O)c3cccc(OC(F)(F)C(F)F)c3)cc2[nH]1`, the melting point came to 186 °C.

`CC(C)c1ccc2c(c1)C(C(=O)O)c1ccccc1CO2` (stereo not drawn) had a melting point of 161 to 162 °C.

With `C=CCOc1cc([N+](=O)[O-])ccc1OC`, the melting point was 93 to 94 °C.

`O=C(Cl)Oc1ccc(-c2ccccc2)cc1` gave a melting point of 36 °C.

`CC(O)c1nccc2c1CCCC2` (stereo not drawn): the melting point lay in the range of 60 to 61 °C.

As for `O=C(c1cccnc1)c1cc2cc(Br)ccc2o1`, the melting point lay in the range of 144 to 145 °C.

Compound `COC(=O)C(Cc1ccc(C#N)cc1)C(=O)c1ccc(C#N)cc1` (stereo not drawn) came in with a melting point of 154 to 157 °C.

The compound `CC(c1cccnc1)N(c1ccc(F)cc1F)S(C)(=O)=O` (stereo not drawn) showed a melting point of 76 to 78 °C.

As for `O=C1N(Cc2nnc(-c3ccc(Cl)cc3)o2)c2ccccc2C12COc1cc3c(cc12)OCO3` (stereo not drawn), the melting point was 161 to 162 °C.

Take `Cc1cc(-c2ccc(Cl)cc2)nc(-c2cccc(-c3ccc(S(N)(=O)=O)s3)c2)n1`: the melting point worked out at 227 °C.

In the case of `Nc1cc(Oc2ccc(-c3ccc(Oc4cc(N)cc(C(F)(F)F)c4)cc3)cc2)cc(C(F)(F)F)c1`, the melting point is 130 to 133 °C.

With `CCOC(=NC(=O)c1cccc(C)c1)N1Cc2ccccc2-c2ccccc2C1`, the melting point lay in the range of 102 to 105 °C.

`CON(C)C(=O)C(Cc1c[nH]c2ccccc12)NC(=O)OC(C)(C)C` (stereo not drawn) returned a melting point of 129 to 130 °C.

As to `CCOc1ccc(C(C)=O)cc1S(=O)(=O)NC(=O)Nc1nc(OC)cc(OC)n1`, the melting point was 192 to 193 °C.

Turning to `C[C@@H](SN1CCOCC1)[C@](O)(Cn1cncn1)c1ccc(F)cc1F`, the melting point was in the range of 119 to 121 °C.

Regarding `N#CC1=C(C#N)Sc2nc3ccccc3nc2S1`, the melting point is greater than 300 °C.

For the compound `O=C(O)c1cccc(CC2COc3ccc(OCc4ccc5ccccc5n4)cc3C2O)c1` (stereo not drawn), the melting point was 193 to 195 °C.

`COC(=O)CCNC(=O)c1ccc2c(c1)nc(-c1ccc(C(=N)N)cc1)n2CCCCc1ccccc1` registered a melting point of 184 to 186 °C.

`CO/N=C(/C(N)=O)c1ccccc1Oc1ccccc1` showed a melting point of 98 to 99 °C.

`COC(=O)C1=C(CCc2ccccc2)NC(CC(=O)N2CCN(C)CC2)=C(C(=O)OC)C1c1ccccc1Cl` (stereo not drawn) had a melting point of 138 °C.

With `CC1(C)Oc2cccc(O)c2O1`, the melting point lay in the range of 88 to 90 °C.

Take `CCOC(=O)[C@H](Cc1ccc(NC(=O)c2c(Cl)cncc2Cl)cc1)NC1=CC(=O)C12CCCCC2`: the melting point was 194 °C.

`CCOC(=O)c1c(N2CCN(C(=O)c3cccs3)CC2)c2cc(Cl)cnc2n(Cc2ccccc2)c1=O` registered a melting point of 197 °C.

In turn, `N#Cc1ncn(-c2cccc(Cl)c2F)c1I` registered a melting point of 182 to 183 °C.

The compound `Cc1cc(C(C)(O)c2ccc(C(F)(F)F)cn2)ccc1NC(=O)OC(C)(C)C` (stereo not drawn) yielded a melting point of 132 to 134 °C.

The compound `Cc1nc(CCN2CCOCC2)c2c(n1)N(CC#N)C(=O)C(N)O2` (stereo not drawn) showed a melting point of 126 to 128 °C.

The compound `COC(=O)C1(C)CN(C(=S)Nc2ccc(Cl)cc2)N=C1c1ccc(Cl)cc1` (stereo not drawn) displayed a melting point of 69 to 78 °C.

Compound `COC(=O)N=P(c1ccccc1)(c1ccccc1)c1ccccc1` returned a melting point of 138 to 139 °C.

As to `COC(=O)c1ccc(S(=O)Cc2cccc(Cl)c2)cn1` (stereo not drawn), the melting point was in the range of 75 to 77 °C.

For the compound `Cc1cc2c(c(C)c1N)C(c1ccc(C(C)C)cc1)CO2` (stereo not drawn), the melting point lay within 53 to 55 °C.

Take `Nc1c(C(=O)O)cnn1-c1ccc(C(F)(F)F)cc1`: the melting point lay within 169 to 171 °C.

The compound `CCCCCCCCCCCCCCCCCCCCC(NC(C)=O)(C(=O)OCC)C(=O)OCC` returned a melting point of 76.5 to 77.5 °C.

`O=C1NCc2c(-c3ccccc3)cccc2N1c1ccccc1`: the melting point lay in the range of 234 to 235 °C.

Compound `CCC(=O)NC1COC2=CC3=C(OCCC3)C(=O)C21` (stereo not drawn) came in with a melting point of 184 °C.

As to `O=C(Cc1ccsc1)N[C@H]1C[C@H](C(=O)O)Nc2cc(Cl)cc(Cl)c21` (relative stereo), the melting point lay within 198 to 200 °C.

Regarding `O=C(O)c1ccc2c(c1)C=C(n1ccnc1)CC2`, the melting point lay in the range of 323 to 326 °C.

`O=[N+]([O-])c1ccc(Sc2ccc(O)c(Cl)c2Cl)cc1` gave a melting point of 204 °C.

The compound `N#CC=C1CCN(c2ccc(N3C[C@H](CNC(=O)CC#N)OC3=O)cc2F)CC1` had a melting point of 150 to 152 °C.

Take `O=C(Nc1ccc(CN2C(=O)[C@H]3CCC[C@H]3N(C(=O)CN3C(=O)c4ccccc4C3=O)c3ccccc32)cc1)c1ccccc1F` (relative stereo): the melting point is 238 to 240 °C.

With `Cc1ccc(Cl)cc1N1CCCN(CC(C)C)C1=S`, the melting point fell in the range of 96 to 98 °C.

With `CN(Cc1ccccc1)c1cc(=S)ss1`, the melting point fell in the range of 138 to 140 °C.

`COc1ccc(/C=C/c2ccc3c(=O)n(-c4ccccc4)ncc3c2)cc1` had a melting point of 198 to 199 °C.

`O=C1CCC(c2ccc(-c3ccc(Cl)c(Cl)c3)o2)O1` (stereo not drawn): the melting point was in the range of 89 to 90 °C.

The compound `O=C(Nc1ccc(C(F)(F)F)cc1)N1CC(c2ccc(Cl)cc2)C(c2ccc(Cl)cc2)N1` (stereo not drawn) had a melting point of 242 to 243 °C.

The compound `OC1(Cn2cncn2)CCCCC12OC2c1ccc(Cl)cc1` (stereo not drawn) had a melting point of 150 °C.

In turn, `O=C1NC(=O)[C@@]2(C[C@@H](C(=O)NO)Oc3ccc(F)cc32)N1` registered a melting point of 178 °C.

Consider `CCCCS(=O)Cc1ccc(CCl)cc1` (stereo not drawn), for which the melting point fell in the range of 112 to 113 °C.

The compound `CC(C)C(=O)n1cc(-c2ccc(Oc3ccccc3)cc2)c2c(N)ncnc21` returned a melting point of 160 to 161 °C.

As to `O=c1ccc2c(O)cc(O)cc2[nH]1`, the melting point was greater than 300 °C.

`CCNC(=O)c1cc(N)c([N+](=O)[O-])cc1OC` showed a melting point of 235 to 239 °C.

`Nc1ncnc2c1ncn2Cc1nc2cccc(Cl)c2c(=O)n1-c1ccccc1-c1ccccc1` displayed a melting point of 300 °C.

`CCOc1ccc(C(=O)CCC(=O)Nc2sc(-c3ccccc3)nc2-c2ccccc2)cc1` registered a melting point of 169 to 170 °C.

Regarding `c1ccc(-c2cc(-c3ccc(C4CCCC4)cc3)sc2-c2ccccc2)cc1`, the melting point worked out at 150 °C.

`Cc1ccc2c(c1)C(C(=O)Nc1c(Br)cccc1Br)c1ccccc1CO2` (stereo not drawn) yielded a melting point of 184 °C.

`COc1cc(N2C(=O)c3ccccc3C2=O)c2nccc(C)c2c1Oc1cccc(C(F)(F)F)c1`: the melting point lay within 228 to 230 °C.

For `CC(=O)N1C(=O)C(C(=O)c2ccco2)c2ccccc21` (stereo not drawn), the melting point is 138 °C.

The compound `CCCC1(C)C(=O)N(CC(=O)Nc2c(C(C)C)cccc2C(C)C)C(=O)N1c1ccc(C)cc1` (stereo not drawn) gave a melting point of 186 °C.

`O=C(CC(O)(c1cc(Cl)cc(Cl)c1)C(F)(F)F)c1ccc(Br)c2ccccc12` (stereo not drawn) registered a melting point of 74.5 to 75 °C.

Consider `COCC(O)c1cccc(S(N)(=O)=O)c1` (stereo not drawn), for which the melting point turned out to be 109 °C.

In the case of `COC(=O)[C@@H]1C[C@H](OS(=O)(=O)c2ccc(Br)cc2)C(=O)[C@@H]2[C@@]3(C)C[C@@H](c4ccoc4)OC(=O)[C@H]3CC[C@]21C`, the melting point was 165 to 166 °C.

The compound `Cc1nc(CCOc2ccc(CC3SC(=N)NC3=O)cc2)oc1-c1ccccc1` (stereo not drawn) registered a melting point of 194 to 195 °C.

Compound `Cc1cccc(C(=O)OCC=Cc2ccccc2)c1O` came in with a melting point of 154 °C.

`CSc1ccc2c(n1)C(c1ccccc1)=[N+]([O-])Cc1nncn1-2` yielded a melting point of 190 to 192 °C.

Consider `CCNC(=O)c1cnn(C)c1`, for which the melting point fell in the range of 103 to 106 °C.

Compound `Cn1c(-c2cnn(-c3c(Cl)cc(C(F)(F)F)cc3Cl)n2)nc(C#N)c1C#N` returned a melting point of 154 to 156 °C.

Regarding `COc1ccc(-c2c(Cl)c(CN3C(=O)CCC3=O)nc3sc4c(c23)CCNC4)cc1OC`, the melting point is 250 to 252 °C.

On to `Cc1ccc(Cc2cnc(NCCCNc3cccc(C)n3)[nH]c2=O)cn1`, for which the melting point was 113 to 120 °C.

`COc1ccc2oc(N(C=O)[C@@H](Cc3ccccn3)c3ncc(-c4ccc(N5CCOCC5)cc4)n3C)cc2c1` gave a melting point of 122 to 124 °C.

On to `C[C@H](O)C(=O)Nc1ccccn1`, for which the melting point was in the range of 102 to 104 °C.

Compound `Cc1cn2cccc(OCc3ccc(F)cc3)c2n1` registered a melting point of 137 °C.

Consider `O=Cc1ccc(NCc2cccc(Cl)c2)cn1`, for which the melting point fell in the range of 102 to 105 °C.

Take `COC(=O)C1C=CCn2c(=O)n(CCl)c(=O)n21` (stereo not drawn): the melting point lay within 164 to 165 °C.

`Nc1ccc(Br)c2ccn3c(=O)c(C(=O)O)cnc3c12` returned a melting point of 283 to 284 °C.

Regarding `CCC(=O)Nc1ccc(Oc2cccc(OC)c2)cc1`, the melting point lay within 79 to 81 °C.

For `CCOCC1(O)c2ccccc2CCc2cc(OC)c(OC)cc21` (stereo not drawn), the melting point fell in the range of 98 to 100 °C.

For `CC(=O)N1CCN(c2cncc(Cl)n2)CC1`, the melting point lay in the range of 106 to 108 °C.

`O=C(O)CCc1ccc(OCc2nc(-c3ccccc3)c(-c3ccccc3)o2)cc1` showed a melting point of 124 to 127 °C.

Regarding `CS(=O)(=O)c1ccc(-c2cccn2-c2ccc(F)c(F)c2)cc1`, the melting point was 137 to 139 °C.

`CN1C(=O)[C@H](NC(=O)CNc2ccccc2)N=C(c2ccccc2)c2ccccc21` displayed a melting point of 245 to 246 °C.
